# According to ChEMBL document CHEMBL5620375, “Tetrahydrobenzo[h]quinoline derivatives as a novel chemotype for dual antileishmanial-antimalarial activity graced with antitubercular activity: Design, synthesis and biological evaluation” (Eur J Med Chem, 2023):
# Test system: Leishmania major
# Assay: Antileishmanial activity against Leishmania major promastigotes assessed as inhibition of parasite growth incubated for 48 hrs by alamar blue reagent based ELISA
# Format: functional, organism-based
# Settings: not given
row,SMILES,IC50 [µM]
1,COc1ccc(OC)c(-c2c3c([nH]c(=O)c2C#N)-c2ccccc2CC3)c1,2.33
2,N#Cc1c(-c2ccc(Cl)cc2Cl)c2c([nH]c1=O)-c1ccccc1CC2,5.3
3,CC(=O)N1CCC(C(=O)NCc2ccc3c(c2)-c2[nH]c(=O)c(C#N)c(-c4cc(C(F)(F)F)ccc4Cl)c2CC3)CC1,1.24
4,COc1ccc(-c2c3c([nH]c(=O)c2C#N)-c2ccccc2CC3)cc1O,1.4
5,Cc1cccc(-c2c3c([nH]c(=O)c2C#N)-c2ccccc2CC3)c1,3.46

# Test system: Plasmodium berghei
# Assay: Antimalarial activity against Plasmodium berghei ANKA infected in mouse assessed as parasitemia at 48.4 microM/Kg,po measured after 96 hrs by giemsa staining analysis relative to control
# Format: functional
# Settings: at 48.4 µmol/kg
row,SMILES,Activity [%]
1,COc1ccc(OC)c(-c2c3c([nH]c(=O)c2C#N)-c2ccccc2CC3)c1,5
2,N#Cc1c(-c2ccc(Cl)cc2Cl)c2c([nH]c1=O)-c1ccccc1CC2,32
3,CC(=O)N1CCC(C(=O)NCc2ccc3c(c2)-c2[nH]c(=O)c(C#N)c(-c4cc(C(F)(F)F)ccc4Cl)c2CC3)CC1,56
4,COc1ccc(-c2c3c([nH]c(=O)c2C#N)-c2ccccc2CC3)cc1O,33
5,Cc1cccc(-c2c3c([nH]c(=O)c2C#N)-c2ccccc2CC3)c1,18

# Test system: Mycobacterium tuberculosis
# Assay: Antitubercular activity against XDR Mycobacterium tuberculosis RCMB 2674 assessed as inhibition of bacterial growth by microplate alamar blue assay
# Format: functional
# Settings: not given
row,SMILES,MIC [µM]
1,COc1ccc(OC)c(-c2c3c([nH]c(=O)c2C#N)-c2ccccc2CC3)c1,175
2,N#Cc1c(-c2ccc(Cl)cc2Cl)c2c([nH]c1=O)-c1ccccc1CC2,> 342
3,COc1ccc(-c2c3c([nH]c(=O)c2C#N)-c2ccccc2CC3)cc1O,182

# Test system: Plasmodium berghei
# Assay: Antimalarial activity against Plasmodium berghei ANKA infected in mouse assessed as mean survival time at 48.4 microM/Kg,po measured after 96 hrs
# Format: functional
# Settings: not given
row,SMILES,Survival [days]
1,N#Cc1c(-c2ccc(Cl)cc2Cl)c2c([nH]c1=O)-c1ccccc1CC2,4.5
2,CC(=O)N1CCC(C(=O)NCc2ccc3c(c2)-c2[nH]c(=O)c(C#N)c(-c4cc(C(F)(F)F)ccc4Cl)c2CC3)CC1,5.66
3,COc1ccc(-c2c3c([nH]c(=O)c2C#N)-c2ccccc2CC3)cc1O,7.33
4,Cc1cccc(-c2c3c([nH]c(=O)c2C#N)-c2ccccc2CC3)c1,9.33

# Test system: Mycobacterium tuberculosis
# Assay: Antitubercular activity against Mycobacterium tuberculosis H37Ra assessed as inhibition of bacterial growth by microplate alamar blue assay
# Format: functional
# Settings: not given
row,SMILES,MIC [µM]
1,COc1ccc(OC)c(-c2c3c([nH]c(=O)c2C#N)-c2ccccc2CC3)c1,5.44
2,N#Cc1c(-c2ccc(Cl)cc2Cl)c2c([nH]c1=O)-c1ccccc1CC2,5.31
3,CC(=O)N1CCC(C(=O)NCc2ccc3c(c2)-c2[nH]c(=O)c(C#N)c(-c4cc(C(F)(F)F)ccc4Cl)c2CC3)CC1,53.6
4,COc1ccc(-c2c3c([nH]c(=O)c2C#N)-c2ccccc2CC3)cc1O,5.66
5,Cc1cccc(-c2c3c([nH]c(=O)c2C#N)-c2ccccc2CC3)c1,100

# Test system: Plasmodium berghei
# Assay: Antimalarial activity against Plasmodium berghei ANKA infected in mouse assessed as reduction in parasite growth at 48.4 microM/Kg,po measured after 96 hrs by giemsa staining analysis
# Format: functional
# Set-up: scale not given: the % may be the effect or the level left
# Settings: at 48.4 µmol/kg
row,SMILES,Activity [%]
1,COc1ccc(OC)c(-c2c3c([nH]c(=O)c2C#N)-c2ccccc2CC3)c1,94.44
2,N#Cc1c(-c2ccc(Cl)cc2Cl)c2c([nH]c1=O)-c1ccccc1CC2,64.44
3,CC(=O)N1CCC(C(=O)NCc2ccc3c(c2)-c2[nH]c(=O)c(C#N)c(-c4cc(C(F)(F)F)ccc4Cl)c2CC3)CC1,37.78
4,COc1ccc(-c2c3c([nH]c(=O)c2C#N)-c2ccccc2CC3)cc1O,63.33
5,Cc1cccc(-c2c3c([nH]c(=O)c2C#N)-c2ccccc2CC3)c1,80

# Test system: Plasmodium falciparum
# Assay: Antimalarial activity against chloroquine-resistant Plasmodium falciparum RKL9 assessed as inhibition of parasite growth incubated for 24 hrs by giemsa staining analysis
# Format: functional, organism-based
# Settings: RKL9, 24 h
row,SMILES,IC50 [µM]
1,COc1ccc(OC)c(-c2c3c([nH]c(=O)c2C#N)-c2ccccc2CC3)c1,0.089

# Test system: Leishmania major
# Assay: Antileishmanial activity against Leishmania major amastigotes assessed as inhibition of parasite growth incubated for 72 hrs by resazurin reagent based ELISA
# Format: functional, organism-based
# Settings: not given
row,SMILES,IC50 [µM]
1,COc1ccc(OC)c(-c2c3c([nH]c(=O)c2C#N)-c2ccccc2CC3)c1,2.98
2,N#Cc1c(-c2ccc(Cl)cc2Cl)c2c([nH]c1=O)-c1ccccc1CC2,6
3,CC(=O)N1CCC(C(=O)NCc2ccc3c(c2)-c2[nH]c(=O)c(C#N)c(-c4cc(C(F)(F)F)ccc4Cl)c2CC3)CC1,3.26
4,COc1ccc(-c2c3c([nH]c(=O)c2C#N)-c2ccccc2CC3)cc1O,3.7
5,Cc1cccc(-c2c3c([nH]c(=O)c2C#N)-c2ccccc2CC3)c1,5.58
